Laboratory results as given in patent US7772241B2, “Variolin derivatives and their use as antitumor agents” (Pharma Mar S.A., priority 2001, dated 2010).

Columns and labels:
DU-145 = assay: Inhibition of cells growth by colorimetric (SRB) assay, DU-145; settings: for GI50 / CC50: Homo sapiens, DU-145, 48 h; for GI50: read-out: GI50 DU-145, SRB assay, 48 hours exposure; for CC50: read-out: LC50 DU-145, SRB assay, 48 hours exposure; for TGI DU-145: SRB assay, 48 hours exposure
From the text: (§1) The finality of these assays is to interrupt the growth of a “in vitro” tumor cell culture by means a continued exhibition of the cells to the sample to be testing.
(§2) This form of the assay employs 96 well cell culture microplates of 9 mm diameter (Faircloth, 1988; Mosmann, 1983). Most of the cell lines are obtained from American Type Culture Collection (ATCC) derived from different human cancer types.
(§3) Cells are maintained in RPMI 1640 10% FBS, supplemented with 0.1 g/l penicillin and 0.1 g/l streptomycin sulphate and then incubated at 37° C., 5% CO2 and 98% humidity. For the experiments, cells were harvested from subconfluent cultures using trypsin and resuspended in fresh medium before plating.
(§4) Cells are seeded in 96 well microtiter plates, at 5×10^3 cells per well in aliquots of 195 μl medium, and they are allowed to attach to the plate surface by growing in drug free medium for 18 hours. Afterward, samples are added in aliquots of 5 μl in a ranging from 10 to 10^−8 μg/ml, dissolved in DMSO/EtOH/PBS (0.5:0.5:99). After 48 hours exposure, the antitumor effect are measured by the SRB methodology: cells are fixed by adding 50 μl of cold 50% (wt/vol) trichloroacetic acid (TCA) and incubating for 60 minutes at 4° C. Plates are washed with deionized water and dried. One hundred μl of SRB solution (0.4% wt/vol in 1% acetic acid) is added to each microtiter well and incubated for 10 minutes at room temperature. Unbound SRB is removed by washing with 1% acetic acid. Plates are air dried and bound stain is solubilized with Tris buffer. Optical densities are read on a automated spectrophotometric plate reader at a single wavelength of 490 nm.
(§5) The values for mean +/−SD of data from triplicate wells are calculated. Some parameters for cellular responses can be calculated: GI=growth inhibition, TGI=total growth inhibition (cytostatic effect) and LC=cell killing (cytotoxic effect).

LoVo-Dox = assay: Inhibition of cells growth by colorimetric (SRB) assay, LoVo-Dox; settings: for GI50 / CC50: Homo sapiens, 48 h; for GI50: read-out: GI50 LOVO-DOX, SRB assay, 48 hours exposure; for CC50: read-out: LC50 LOVO-DOX, SRB assay, 48 hours exposure; for TGI LOVO-DOX: SRB assay, 48 hours exposure
From the text: as §1, §2, §3, §4, §5

SK-OV-3 = assay: Inhibition of cells growth by colorimetric (SRB) assay, SK-OV-3; settings: for GI50 / CC50: Homo sapiens, SK-OV-3, 48 h; for GI50: read-out: GI50 SKOV-3, SRB assay, 48 hours exposure; for CC50: read-out: LC50 SKOV-3, SRB assay, 48 hours exposure; for TGI SKOV-3: SRB assay, 48 hours exposure
From the text: as §1, §2, §3, §4, §5

LNCaP = assay: Inhibition of cells growth by colorimetric (SRB) assay, LNCaP; settings: for GI50 / CC50: Homo sapiens, LNCaP, 48 h; for GI50: read-out: GI50 LN-caP, SRB assay, 48 hours exposure; for CC50: read-out: LC50 LN-caP, SRB assay, 48 hours exposure; for TGI LN-caP: SRB assay, 48 hours exposure
From the text: as §1, §2, §3, §4, §5

LoVo = assay: Inhibition of cells growth by colorimetric (SRB) assay, LoVo; settings: for GI50 / CC50: Homo sapiens, LoVo, 48 h; for GI50: read-out: GI50 LOVO, SRB assay, 48 hours exposure; for CC50: read-out: LC50 LOVO, SRB assay, 48 hours exposure; for TGI LOVO: SRB assay, 48 hours exposure
From the text: as §1, §2, §3, §4, §5

HT-29 = assay: Inhibition of cells growth by colorimetric (SRB) assay, HT-29; settings: for GI50 / CC50: Homo sapiens, HT-29, 48 h; for GI50: read-out: GI50 HT-29, SRB assay, 48 hours exposure; for CC50: read-out: LC50 HT-29, SRB assay, 48 hours exposure; for TGI HT-29: SRB assay, 48 hours exposure
From the text: as §1, §2, §3, §4, §5

K-562 = assay: Inhibition of cells growth by colorimetric (SRB) assay, K-562; settings: for GI50 / CC50: Homo sapiens, K562, 48 h; for GI50: read-out: GI50 K-562, SRB assay, 48 hours exposure; for CC50: read-out: LC50 K-562, SRB assay, 48 hours exposure; for TGI K-562: SRB assay, 48 hours exposure
From the text: as §1, §2, §3, §4, §5

A-549 = assay: Inhibition of cells growth by colorimetric (SRB) assay, A-549; settings: for GI50 / CC50: Homo sapiens, A549, 48 h; for GI50: read-out: GI50 A-549, SRB assay, 48 hours exposure; for CC50: read-out: LC50 A-549, SRB assay, 48 hours exposure; for TGI A-549: SRB assay, 48 hours exposure
From the text: as §1, §2, §3, §4, §5

SK-MEL-28 = assay: Inhibition of cells growth by colorimetric (SRB) assay, SK-MEL-28; settings: for GI50 / CC50: Homo sapiens, SK-MEL-28, 48 h; for GI50: read-out: GI50 MEL-28, SRB assay, 48 hours exposure; for CC50: read-out: LC50 MEL-28, SRB assay, 48 hours exposure; for TGI MEL-28: SRB assay, 48 hours exposure
From the text: as §1, §2, §3, §4, §5

IGROV-ET = assay: Inhibition of cells growth by colorimetric (SRB) assay, IGROV-ET; settings: for GI50 / CC50: Homo sapiens, 48 h; for GI50: read-out: GI50 IGROV-ET, SRB assay, 48 hours exposure; for CC50: read-out: LC50 IGROV-ET, SRB assay, 48 hours exposure; for TGI IGROV-ET: SRB assay, 48 hours exposure
From the text: as §1, §2, §3, §4, §5

IGROV-1 = assay: Inhibition of cells growth by colorimetric (SRB) assay, IGROV-1; settings: for GI50 / CC50: Homo sapiens, IGROV-1, 48 h; for GI50: read-out: GI50 IGROV, SRB assay, 48 hours exposure; for CC50: read-out: LC50 IGROV, SRB assay, 48 hours exposure; for TGI IGROV: SRB assay, 48 hours exposure
From the text: as §1, §2, §3, §4, §5

PANC-1 = assay: Inhibition of cells growth by colorimetric (SRB) assay, PANC-1; settings: for GI50 / CC50: Homo sapiens, PANC-1, 48 h; for GI50: read-out: GI50 PANC-1, SRB assay, 48 hours exposure; for CC50: read-out: LC50 PANC-1, SRB assay, 48 hours exposure; for TGI PANC-1: SRB assay, 48 hours exposure
From the text: as §1, §2, §3, §4, §5

Row | Compound | GI50 (DU-145) [µM] | CC50 (DU-145) [µM] | TGI DU-145 (DU-145) | GI50 (LoVo-Dox) [µM] | CC50 (LoVo-Dox) [µM] | TGI LOVO-DOX (LoVo-Dox) | GI50 (SK-OV-3) [µM] | CC50 (SK-OV-3) [µM] | TGI SKOV-3 (SK-OV-3) | GI50 (LNCaP) [µM] | CC50 (LNCaP) [µM] | TGI LN-caP (LNCaP) | GI50 (LoVo) [µM] | CC50 (LoVo) [µM] | TGI LOVO (LoVo) | GI50 (HT-29) [µM] | CC50 (HT-29) [µM] | TGI HT-29 (HT-29) | GI50 (K-562) [µM] | CC50 (K-562) [µM] | other results
1 | Nc1nccc2c(-c3ccncn3)c3c(OCc4ccccc4)ccnc3n12 [Compound 98] | 5.94 | 27.1 | 1.41E−05 | 5.92 | 27.1 | 1.42E−05 | 10.6 | 27.1 | 2.19E−05 | 1.85 | 23.9 | 6.49E−06 | 5.02 | 27.1 | 1.51E−05 | 15.6 | 27.1 | 2.71E−05 | 7.82 | 25.8 | TGI K-562 (K-562): 1.42E−05; GI50 (A-549): 15.3 µM; CC50 (A-549): 27.1 µM; TGI A-549 (A-549): 2.71E−05; GI50 (SK-MEL-28): 7.52 µM; CC50 (SK-MEL-28): 21.2 µM; TGI MEL-28 (SK-MEL-28): 1.26E−05; GI50 (IGROV-ET): 7.22 µM; CC50 (IGROV-ET): 20.1 µM; TGI IGROV-ET (IGROV-ET): 1.21E−05; GI50 (IGROV-1): 8.96 µM; CC50 (IGROV-1): 26.8 µM; TGI IGROV (IGROV-1): 1.55E−05; GI50 (PANC-1): 5.62 µM; CC50 (PANC-1): 19 µM; TGI PANC-1 (PANC-1): 1.03E−05
2 | Nc1nccc2c(-c3ccnc(O)n3)c3c(O)ccnc3n12 [Compound 106] | 16.2 | 24.5 | 2.45E−05 | 8.18 | 24.5 | 2.45E−05 | 5.73 | 24.5 | 1.51E−05 | 6.42 | 24.5 | 1.64E−05 | 24.5 | 24.5 | 2.45E−05 | 24.5 | 24.5 | 2.45E−05 | 10.6 | 24.5 | TGI K-562 (K-562): 2.45E−05; GI50 (A-549): 18.2 µM; CC50 (A-549): 24.5 µM; TGI A-549 (A-549): 2.45E−05; GI50 (SK-MEL-28): 8.87 µM; CC50 (SK-MEL-28): 24.5 µM; TGI MEL-28 (SK-MEL-28): 2.45E−05; GI50 (IGROV-ET): 4.97 µM; CC50 (IGROV-ET): 24.4 µM; TGI IGROV-ET (IGROV-ET): 1.10E−05; GI50 (IGROV-1): 6.69 µM; CC50 (IGROV-1): 24.1 µM; TGI IGROV (IGROV-1): 1.27E−05; GI50 (PANC-1): 6.44 µM; CC50 (PANC-1): 24.5 µM; TGI PANC-1 (PANC-1): 1.71E−05
3 | CSc1nccc(-c2c3c(Cl)ccnc3n3c(N)nccc23)n1 [Compound 107] | 0.653 | 29.2 | 1.44E−05 | 0.127 | 23 | 5.98E−07 | 0.195 | 29.2 | 3.35E−06 | 3.38 | 25.3 | 9.25E−06 | 0.173 | 29.2 | 3.79E−06 | 1.11 | 29.2 | 2.92E−05 | 2.18 | 29.2 | TGI K-562 (K-562): 9.19E−06; GI50 (A-549): 4.52 µM; CC50 (A-549): 29.2 µM; TGI A-549 (A-549): 2.70E−05; GI50 (SK-MEL-28): 0.0248 µM; CC50 (SK-MEL-28): 29.2 µM; TGI MEL-28 (SK-MEL-28): 5.19E−06; GI50 (IGROV-ET): 1.57 µM; CC50 (IGROV-ET): 29.2 µM; TGI IGROV-ET (IGROV-ET): 1.44E−05; GI50 (IGROV-1): 2.95 µM; CC50 (IGROV-1): 23.7 µM; TGI IGROV (IGROV-1): 8.34E−06; GI50 (PANC-1): 4.99 µM; CC50 (PANC-1): 29.2 µM; TGI PANC-1 (PANC-1): 2.92E−05
4 | Nc1nccc(-c2c3c(Cl)ccnc3n3c(N)nccc23)n1 [Compound 113] | 1.51 | 32.1 | 6.26E−06 | 2.35 | 32.1 | 1.18E−05 | 1.37 | 32.1 | 5.39E−06 | 1.57 | 15.6 | 2.39E−06 | 1.26 | 32.1 | 7.83E−06 | 4.72 | 32.1 | 3.21E−05 | 6.16 | 32.1 | TGI K-562 (K-562): 2.00E−05; GI50 (A-549): 4.3 µM; CC50 (A-549): 21.4 µM; TGI A-549 (A-549): 9.59E−06; GI50 (SK-MEL-28): 2.12 µM; CC50 (SK-MEL-28): 17.6 µM; TGI MEL-28 (SK-MEL-28): 6.29E−06; GI50 (IGROV-ET): 1.3 µM; CC50 (IGROV-ET): 32.1 µM; TGI IGROV-ET (IGROV-ET): 6.00E−06; GI50 (IGROV-1): 2.94 µM; CC50 (IGROV-1): 24.1 µM; TGI IGROV (IGROV-1): 8.53E−06; GI50 (PANC-1): 1.11 µM; CC50 (PANC-1): 32.1 µM; TGI PANC-1 (PANC-1): 2.76E−05
